Earlier results in patent publication US5635503A, “Dihydropyridine npy antagonists: piperazine derivatives” (Bristol-Myers Squibb Company, priority 1995, dated 1997).

Experiments:
[1] = tested on: NPY-related increases in diastolic blood pressure; details: anesthetized guinea pig model
Y2 receptor = target: T1, Y2 receptor (Rattus norvegicus, UniProt Q9ERC0); details: functional selectivity for the Y2 receptor
T1 sequence (Q9ERC0 1-381): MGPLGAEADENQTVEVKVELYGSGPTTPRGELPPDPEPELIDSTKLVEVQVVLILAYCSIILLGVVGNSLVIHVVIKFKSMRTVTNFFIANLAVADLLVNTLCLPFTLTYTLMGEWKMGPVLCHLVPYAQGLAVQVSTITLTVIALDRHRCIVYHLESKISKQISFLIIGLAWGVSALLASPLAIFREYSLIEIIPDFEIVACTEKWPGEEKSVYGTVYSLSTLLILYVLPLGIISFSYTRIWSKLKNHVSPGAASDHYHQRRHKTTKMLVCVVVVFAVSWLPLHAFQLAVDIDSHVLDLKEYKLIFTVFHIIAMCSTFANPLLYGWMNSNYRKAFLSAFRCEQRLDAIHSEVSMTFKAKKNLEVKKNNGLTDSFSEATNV

[2] = tested on: vasoconstrictive activity of the NPY1 agonist [Leu31, Pro34]NPY

| effect on the NPY2 agonist NPY13-36 (Y2 receptor) | SMILES | antagonism of NPY-related increases in diastolic blood pressure [1] | functional antagonism (rat femoral artery) | effect on vasoconstrictive activity of the NPY1 agonist [Leu31, Pro34]NPY [2] |
| --- | --- | --- | --- | --- |
| – | CN(C)CC1CCC(CNC(=N)c2ccc(CC(NC(=O)C(Cc3ccccc3)NS(=O)(=O)c3ccc4ccccc4c3)C(=O)N3CCCC3)cc2)CC1 (stereo not shown) [SR 120819A] | antagonized | – | – |
| antagonized the effect | N=C(N)N(CCCCCCNCc1ccc2ccccc2c1)CCCCCCN(CCCCCCNCc1ccc2ccccc2c1)C(=N)N [Example 6b] | – | display functional antagonism | had no effect |
